Oligonucleotides are written 5' to 3', each unit as a sugar letter and its base; * is a phosphorothioate linkage, no mark a phosphodiester; rarer units and linkages stand in square brackets, end groups in braces. Plain capitals give the bases only. d = 2'-deoxy (DNA); r = 2'-OH (RNA)
Note: test concentration or dose not given here.

In the first data set the target is UBE2B. The data set can be described thus: reporter assay of Huesken 2005. Conditions: siRNA.
In the case of “sense rUrArGrUrArArUrArGrArArUrUrUrUrCrUrGrAdTdT / antisense rUrCrArGrArArArArUrUrCrUrArUrUrArCrUrAdGdT”, the normalised inhibition (eCFP-eYFP dual reporter) is 72.3%.
Same read-out and setting: with “sense rArGrUrUrArUrArUrUrUrGrGrArCrCrArGrArAdTdT / antisense rUrUrCrUrGrGrUrCrCrArArArUrArUrArArCrUdGdC” the figure was 79%; with “sense rCrArGrGrArArArArCrArArArCrGrArGrArArUdTdT / antisense rArUrUrCrUrCrGrUrUrUrGrUrUrUrUrCrCrUrGdAdT”, 84%.
Substance “sense rCrArArArUrGrUrGrUrArUrGrCrUrGrArUrGrGdTdT / antisense rCrCrArUrCrArGrCrArUrArCrArCrArUrUrUrGdGdA” displayed a normalised inhibition (eCFP-eYFP dual reporter) of 62.6%.
Substance “sense rCrGrGrCrCrArUrUrGrUrUrGrArArCrArArArGdTdT / antisense rCrUrUrUrGrUrUrCrArArCrArArUrGrGrCrCrGdAdA” yielded a normalised inhibition (eCFP-eYFP dual reporter) of 76.5%.
The same measure, in the same setting: the figure for “sense rCrCrArArArArUrGrUrUrUrCrArUrCrCrArArAdTdT / antisense rUrUrUrGrGrArUrGrArArArCrArUrUrUrUrGrGdAdT” is 84.6%.
Same read-out and setting: the figure for “sense rArArCrArArCrArUrCrArUrGrCrArGrUrGrGrAdTdT / antisense rUrCrCrArCrUrGrCrArUrGrArUrGrUrUrGrUrUdTdT” is 56.4%; for “sense rGrArArUrCrGrArUrGrGrArGrUrCrCrArArCrAdTdT / antisense rUrGrUrUrGrGrArCrUrCrCrArUrCrGrArUrUrCdTdG” it is 84.1%.
The substance “sense rArGrGrGrArCrArCrCrUrUrUrUrGrArArGrArUdTdT / antisense rArUrCrUrUrCrArArArArGrGrUrGrUrCrCrCrUdTdC” yielded a normalised inhibition (eCFP-eYFP dual reporter) of 78.1%.
On the same count and under the same terms, the figure for “sense rGrCrGrCrArCrCrArUrCrUrGrArArArArCrArAdTdT / antisense rUrUrGrUrUrUrUrCrArGrArUrGrGrUrGrCrGrCdCdA” is 72.8%; for “sense rUrGrCrArGrUrUrArUrArUrUrUrGrGrArCrCrAdTdT / antisense rUrGrGrUrCrCrArArArUrArUrArArCrUrGrCrAdTdT” it is 81.7%.

A further data set has as its target UBE2E3. The experiment in a line: reporter assay of Huesken 2005. Conditions: siRNA.
Turning to “sense rCrUrGrUrArUrArUrGrArArGrGrUrGrGrUrGrUdTdT / antisense rArCrArCrCrArCrCrUrUrCrArUrArUrArCrArGdAdA”, the normalised inhibition (eCFP-eYFP dual reporter) turned out to be 36.8%.
Substance “sense rGrCrCrArCrUrCrArGrUrArUrUrUrGrArCrCrAdTdT / antisense rUrGrGrUrCrArArArUrArCrUrGrArGrUrGrGrCdTdA” gave a normalised inhibition (eCFP-eYFP dual reporter) of 90.9%.
“sense rGrUrCrArUrCrUrGrUrCrUrGrGrArCrArUrCrCdTdT / antisense rGrGrArUrGrUrCrCrArGrArCrArGrArUrGrArCdTdC” came in with a normalised inhibition (eCFP-eYFP dual reporter) of 43.8%.
Same read-out and setting: the figure for “sense rCrArArArGrGrUrUrUrUrGrCrUrGrUrCrUrArUdTdT / antisense rArUrArGrArCrArGrCrArArArArCrCrUrUrUrGdAdA” is 92.4%.
The same measure, in the same setting: the figure for “sense rGrGrArGrArUrArArCrArUrUrUrArUrGrArArUdTdT / antisense rArUrUrCrArUrArArArUrGrUrUrArUrCrUrCrCdTdT” is 75.8%; for “sense rArUrArGrCrCrArCrUrCrArGrUrArUrUrUrGrAdTdT / antisense rUrCrArArArUrArCrUrGrArGrUrGrGrCrUrArUdGdC” it is 88.7%.
On the same count and under the same terms, with “sense rArCrArUrCrArArCrArGrUrCrArGrGrGrArGrUdTdT / antisense rArCrUrCrCrCrUrGrArCrUrGrUrUrGrArUrGrUdTdG” the figure was 69.9%; with “sense rArUrCrArArCrArGrUrCrArGrGrGrArGrUrCrAdTdT / antisense rUrGrArCrUrCrCrCrUrGrArCrUrGrUrUrGrArUdGdT”, 70.5%; with “sense rUrUrCrCrGrCrArCrCrArGrArArUrCrUrArUrCdTdT / antisense rGrArUrArGrArUrUrCrUrGrGrUrGrCrGrGrArAdAdG”, 42.5%.
In turn, “sense rCrCrArArArCrUrCrUrCrUrArGrCrArArArArCdTdT / antisense rGrUrUrUrUrGrCrUrArGrArGrArGrUrUrUrGrGdTdG” yielded a normalised inhibition (eCFP-eYFP dual reporter) of 69.8%.
Consider “sense rArUrUrCrArGrArArGrGrArGrCrUrArGrCrUrGdTdT / antisense rCrArGrCrUrArGrCrUrCrCrUrUrCrUrGrArArUdTdC”, for which the normalised inhibition (eCFP-eYFP dual reporter) worked out at 42.3%.
Same read-out and setting: with “sense rCrUrCrCrUrCrCrUrArArUrUrGrCrArGrUrGrCdTdT / antisense rGrCrArCrUrGrCrArArUrUrArGrGrArGrGrArGdGdA” the figure was 34.3%; with “sense rGrGrArUrCrCrUrCrUrGrGrUrUrGrGrArArGrCdTdT / antisense rGrCrUrUrCrCrArArCrCrArGrArGrGrArUrCrCdGdC”, 59.8%; with “sense rArArCrUrCrUrCrUrArGrCrArArArArCrCrArCdTdT / antisense rGrUrGrGrUrUrUrUrGrCrUrArGrArGrArGrUrUdTdG”, 52.4%.
Same read-out and setting: with “sense rCrArArCrCrCrUrGrCrGrGrArUrCrCrUrCrUrGdTdT / antisense rCrArGrArGrGrArUrCrCrGrCrArGrGrGrUrUrGdCdA” the figure was 56.3%; with “sense rUrArUrGrArArGrGrUrGrGrUrGrUrGrUrUrUrUdTdT / antisense rArArArArCrArCrArCrCrArCrCrUrUrCrArUrAdTdA”, 50.1%; with “sense rCrCrUrUrArArArGrArCrArArCrUrGrGrArGrUdTdT / antisense rArCrUrCrCrArGrUrUrGrUrCrUrUrUrArArGrGdAdT”, 58.9%.
“sense rGrArUrArUrCrArCrArUrUrUrUrCrArUrCrArGdTdT / antisense rCrUrGrArUrGrArArArArUrGrUrGrArUrArUrCdCdA” yielded a normalised inhibition (eCFP-eYFP dual reporter) of 57.6%.
Regarding “sense rArCrUrArUrUrUrCrArArArGrGrUrUrUrUrGrCdTdT / antisense rGrCrArArArArCrCrUrUrUrGrArArArUrArGrUdCdA”, the normalised inhibition (eCFP-eYFP dual reporter) was found to be 34.3%.
“sense rUrCrUrGrGrArUrArUrCrArCrArUrUrUrUrCrAdTdT / antisense rUrGrArArArArUrGrUrGrArUrArUrCrCrArGrAdAdA” had a normalised inhibition (eCFP-eYFP dual reporter) of 68.8%.
As to “sense rGrUrGrCrUrArArArArGrArArUrUrCrArGrArAdTdT / antisense rUrUrCrUrGrArArUrUrCrUrUrUrUrArGrCrArCdTdA”, the normalised inhibition (eCFP-eYFP dual reporter) was 81.5%.
On the same count and under the same terms, with “sense rUrArArUrUrGrCrArGrUrGrCrUrGrGrGrCrCrUdTdT / antisense rArGrGrCrCrCrArGrCrArCrUrGrCrArArUrUrAdGdG” the figure was 47.3%; with “sense rGrGrUrUrUrUrGrCrUrGrUrCrUrArUrUrUrGrUdTdT / antisense rArCrArArArUrArGrArCrArGrCrArArArArCrCdTdT”, 94.8%.
Same read-out and setting: the figure for “sense rCrArGrUrGrCrUrGrGrGrCrCrUrArArArGrGrAdTdT / antisense rUrCrCrUrUrUrArGrGrCrCrCrArGrCrArCrUrGdCdA” is 73.2%.

The values above are taken from the OligoGym collection.
